Experimental data from US20050281848A1, “Oleaginous ointments comprising two solubilized bioactive agents for the treatment of psoriasis” (GALDERMA S.A., priority 2004, published 2005).

Key:
Type in all cases: physicochemical
[1] = Chemical stability of the actives in Composition 2
Procedure: The compositions of the invention are found particularly effective in conserving satisfactory chemical stability of active principles which are sensitive to oxidation, to water and to aqueous media in general. The term “satisfactory chemical stability” refers to a composition which over a period of at least 3 months, respectively at ambient temperature and at 40° C.:
has an active principles content of at least 80%, in particular at least 90% and more particularly at least 95% of the initial weight content.

[2] = Stability of calcitriol in Miglyol 812 (HPLC assay against a reference); settings: for Calcitriol content, T0 taken as 100%: calcitriol 30 ppm in Miglyol 812, 0.4% BHT, under nitrogen
Procedure: The stability of calcitriol was evaluated in the following two oil solvents: Miglyol 812 and Cetiol SN. a) Stability of Calcitriol in Miglyol 812 (Caprylic and 20 Capric Triglycerides): A solution is prepared of calcitriol 30 ppm in qs 100% of Miglyol 812 in the presence of 0.4% of BHT (antioxidant), kept under nitrogen. The initial time (TO) is taken as 100%.

[3] = Stability of calcitriol in Cetiol SN (HPLC assay against a reference); settings: for Calcitriol content, T0 taken as 100%: calcitriol 30 ppm in Cetiol SN, 0.4% BHT, under nitrogen
Procedure: b) Stability of Calcitriol in Cetiol SN (Cetearyl Isononanoate): A solution is prepared of calcitriol 30 ppm in qs 100% of Cetiol SN in the presence of 0.4% of BHT and kept under nitrogen. The initial time (TO) is taken as 100%.

Row | Chemical stability: content of the active ([1]; T0, AT) | Chemical stability: content of the active ([1]; T15 d, 40° C.) | Chemical stability: content of the active ([1]; T15 d, AT) | Calcitriol content, T0 taken as 100% ([2]; +4° C., T2 weeks) | Calcitriol content, T0 taken as 100% ([2]; +4° C., T4 weeks) | Calcitriol content, T0 taken as 100% ([2]; +40° C., T2 weeks) | Calcitriol content, T0 taken as 100% ([2]; +40° C., T4 weeks) | Calcitriol content, T0 taken as 100% ([2]; ambient temperature, T2 weeks) | Calcitriol content, T0 taken as 100% ([2]; ambient temperature, T4 weeks) | Stability in solution ([2]; in caprylic/capric triglyceride, 1 month) | Calcitriol content, T0 taken as 100% ([3]; +4° C., T2 weeks) | Calcitriol content, T0 taken as 100% ([3]; +4° C., T4 weeks) | Calcitriol content, T0 taken as 100% ([3]; +40° C., T2 weeks) | Calcitriol content, T0 taken as 100% ([3]; +40° C., T4 weeks) | Calcitriol content, T0 taken as 100% ([3]; AT, T2 weeks) | Calcitriol content, T0 taken as 100% ([3]; AT, T4 weeks) | Stability in solution ([3]; in cetearyl isononanoate, 1 month) | Structure (SMILES)
1 | PROPIONATE: 97.3% | PROPIONATE: 92.3 | PROPIONATE: 95.2 |  |  |  |  |  |  |  |  |  |  |  |  |  |  | CCC(=O)O[C@]1(C(=O)CCl)[C@@H](C)C[C@H]2[C@@H]3CCC4=CC(=O)C=C[C@]4(C)[C@@]3(F)[C@@H](O)C[C@@]21C [CLOBETASOL PROPIONATE, clobetasol 17-propionate]
2 | CALCITRIOL: 97.6% | CALCITRIOL: 86.8 | CALCITRIOL: 95.1 | 98.2% | 105.2% | 93.1% | 95.0% | 95.8% | 98.0% | stable | 103.7% | 97.9% | 99.4% | 98.1% | 99.6% | 98.7% | stable | C=C1/C(=C\C=C2/CCC[C@]3(C)[C@@H]([C@H](C)CCCC(C)(C)O)CC[C@@H]23)C[C@@H](O)C[C@@H]1O [calcitriol]
